“Also recorded” adds a separate entry of the source. d = 2'-deoxy (DNA); m = 2'-O-methyl
Tests used:
[1] = tested on: DIO mice; test: Insulin level in DIO mice; type: in vivo, mouse
Description: (§1) The mice were divided into four groups: (1) lean (non-diabetic control); (2) diabetic receiving control ASO (NC-ASO); (3) diabetic receiving ASO5; and (4) diabetic receiving ASO6. In various experiments mice were dosed intra-peritoneally with twice per week injection of ASO at […] body weight for 4 or 8 weeks. Skeletal muscles were subjected to quantitative PCR.
Further, the effect of the reduction of Hsp90ab1 protein level on plasma insulin levels was examined.

[2] = tested on: DIO mice; test: Intraperitoneal glucose tolerance test (IPGTT) in DIO mice; type: in vivo, mouse; details: four weeks treatment, vs NC ASO
Description: Glucose tolerance tests (GTT) are performed after 6 h of fasting. Initial fasting blood glucose levels are determined, followed by intraperitoneal (ip) injection of 20% dextrose solution at a dose of 2.0 g/kg body weight (2 g/kg body weight). Blood glucose levels are measured from the tail vein at 15, 30, 60, 90, 120, 150, and 180 minutes after the glucose injection using a commercially available glucose monitor, e.g., an Accu-chek® Advantage glucometer (Roche Diagnostics®, Indianapolis, Ind.). The area under the curve (AUC) during the GTT is calculated using a commercially available software program, e.g., GraphPad Prism software. GTT experiments for different groups are run in parallel. At each time point of the tail vein glucose measurements, ˜40 μL of tail vein blood is collected and plasma is prepared for subsequent insulin level assays using ELISA/RIA for time points at 0, 15, and 30 min after glucose injections.
HSP90AB1 antisense oligonucleotides (ASO) specific to HSP90AB1 were administered to DIO mice. […]
The mice were divided into four groups: (1) lean (non-diabetic control); (2) diabetic receiving control ASO (NC-ASO); (3) diabetic receiving ASO5; and (4) diabetic receiving ASO6. […] Skeletal muscles were subjected to quantitative PCR.
At the end of the treatment period glucose tolerance was measured. […]

[3] = tested on: human Hsp90AB1 protein; test: Knockdown of Hsp90AB1 protein in HSMM by Western blotting; type: cell-based; details: Western blot, normalized to actin, vs NC1
Description: ASO1-ASO6 were tested for their ability to knock down human Hsp90AB1 levels in HSMM myotubes. The effectiveness of oligonucleotides ASO1 (A1), ASO2 (A2) ASO3 (A3) ASO4 (A4) ASO5 (A5) and ASO6 (A6) in knocking down the expression of HSP90AB1 protein is shown by Western blotting in FIGS. 19A and 19B. The oligonucleotide NC1 was used as a negative control. HSP90Ab1 protein levels were normalized to the levels of actin.
The ASO oligonucleotides ASO5, ASO13 and ASO18 were tested for their ability to reduce expression of human Hsp90AB1 protein in human skeletal muscle myotubes (HSMM) and C2C12 mouse myoblasts by Western blotting. ASO5 was derived from the mouse HSP90ab1 gene, while ASO13 and ASO18 were directed to the human HSP90ab1 gene. The oligonucleotide NC1 was used as a negative control. HSP90AB1protein levels were normalized to the levels of actin.

[4] = tested on: human Hsp90AB1 mRNA; test: Knockdown of Hsp90AB1 mRNA in HSMM myotubes; type: cell-based; details: normalized to cyclophilin, vs NC1ASO
Text: The level of human Hsp90AB1 at the mRNA level was similarly observed to be reduced in HSMM myotubes treated with the exemplary mouse antisense oligonucleotide ASO6 (FIG. 20). ASO6 (and ASOs 1-5 and 7-9) is derived from the mouse HSP90AB1 gene. The oligonucleotide NC1ASO was again used as a negative control. The level of HSP90 mRNA was normalized to a control (cyclophilin) mRNA. The human and the mouse Hsp90aB1 gene share 96% homology.

[5] = tested on: Hsp90ab1 mRNA; test: Hsp90ab1 mRNA in gastrocnemius muscles of DIO mice (quantitative PCR); type: in vivo, mouse; details: ASO intra-peritoneally twice per week
Description: as §1

[6] = tested on: DIO mice; test: Fed / plasma glucose level in DIO mice; type: in vivo, mouse
Description: as §1
Additional experiments were performed to determine the effect of the reduction of Hsp90ab1 protein level on the level of glucose in plasma. […] Thus, treatment with an Hsp90ab1 selective ASO is effective for improving glucose utilization in DIO mice.

[7] = tested on: skeletal muscles of DIO mice; test: Skeletal muscle gene expression and PDH-E1α phosphorylation in DIO mice; type: in vivo, mouse
Text: PDK4 is known to phosphorylate pyruvate dehydrogenase (PDH)-E1α subunit, thereby inhibiting PDH and downregulating mitochondrial glucose oxidation. […] This decrease in phosphorylation is indicative of an increase in active PDH-E1α and a resultant increase in mitochondrial glucose oxidation. Thus, ASO mediated Hsp90ab1 knock-down is effective for enhancing substrate metabolism through suppression of PDK4 expression.
These genes are PFKM (phosphofructokinase, muscle), ALDOA (aldolase A), GYS1 (glycogen synthase 1) ACCA (Acetyl-CoA carboxylase), HSL (Hormone sensitive lipase), SCD1 (Stearoyl-CoA desaturase), ACADL (Acyl-CoA Dehydrogenase), and CPT1b (Carnitine palmitoyltransferase I). Gene expression was examined in the skeletal muscles of the mice.

[8] = tested on: muscle of DIO mice; test: Lipidomic analysis of muscle of DIO mice; type: in vivo, mouse
Text: As noted in the above examples, Hsp90ab1 was identified as a critical node in Bayesian metabolic disease network derived by the interrogation of the biology underlying diabetes in a data driven manner. This was achieved by using a proprietary platform integrating pan-omic data, mitochondrial-centric metabolic fingerprint and phenotypic assays capturing metabolic dysregulation reminiscent of obesity/diabetes sequale. Hsp90ab1 is an ATPase targeting multiple clients including vital components of insulin signaling and mitochondrial membrane proteins. However the role of Hsp90ab1 in metabolism remains unknown. […] This was accompanied by decreased muscle PDH E1a phosphorylation, reflecting an increased insulin sensitivity and carbohydrate substrate metabolism. We also observed significant alteration in the lipidomic profile in these DIO mice treated with ASO6. For example ASO6-mediated knockdown of Hsp90ab1 in DIO mice increased 18:2 enriched species of cardiolipin in muscle. […] Taken together, our data provides novel evidence that Hsp90ab1 isoform is a key regulator of skeletal muscle cell metabolism and systemic metabolism, and represents a target for treatment of diabetes.

“mU*mC*mC*mU*mC*mC*T*C*T*T*T*C*T*C*A*C*C*T*mU*mU*mC*mU*mC*mU (antisense UCCUCCTCTTTCTCACCTUUCUCU; sugars from the 5' end m6 d12 m6, all phosphorothioate, methylation of C not given here) [ASO6, modified antisense oligonucleotide derived from the mouse HSP90AB1 gene]” was tested, and the fed insulin levels [1] was “significant reduction”, the “glucose tolerance (IPGTT)” value [2] was “significant improvement; also recorded: significantly improved” and the “level of HSP90ab1 protein” value [3] was “effective; also recorded: most effective”. The “level of human Hsp90AB1 mRNA” value [4] was “knockdown; also recorded: reduced”, the “Hsp90ab1 mRNA level in the gastrocnemius muscles” value [5] was “effective; also recorded: reduce” and the fed glucose level ([6]; DIO mice, eight weeks treatment) was “significant improvement”. The fed glucose levels ([6]; HFD fed C57B/6 mice, 4 weeks treatment) was “suppressed”, the “PDK4 expression (mRNA) in skeletal muscle” value ([7]; DIO mice (fed HFD), 4 weeks, vs NC) was “significant decrease” and the “phosphorylation of PDH-E1α (S232, S293, S300) in skeletal muscle” value ([7]; DIO mice, Western blot) was “decreased”. For the same substance, the “skeletal muscle mRNA level of Adipose triglyceride lipase (ATGL)” value ([7]; DIO mice, four weeks) was “sharp increase”, the “expression of key genes that regulate glycolysis and lipid oxidation (PFKM, ALDOA, GYS1, ACCA, HSL, SCD1, ACADL, CPT1b)” value ([7]; DIO mice, four weeks, skeletal muscles) was “influences the expression” and the “18:0 and 18:0-OH acylcarnitines in muscle” value [8] was “selectively decreased”. The “18:2 enriched species of cardiolipin in muscle” value [8] was “increased” and the “steric, oleic, and linoleic free fatty acids (FFA) in muscle” value [8] was “decreased”.
